Legend:
PCSK7 mRNA = PCSK7 mRNA qPCR after miRNA overexpression in Huh7 cells; format: cell-based, human; settings: Huh7, 48 hours following transfection, vs mock vector
Method: RNA was isolated from the cells with the TRIzol™ Reagent (Invitrogen, USA) according to the manufacturer's instructions. The RNA samples were treated with RNase-free DNase I (Fermentas, USA) to eliminate any possible DNA contamination. Reverse transcription was performed using the PrimeScript™ First Strand cDNA Synthesis Kit (Takara, Japan) following the manufacturer's protocol. Briefly, one unit of the DNase I enzyme, 1 μL of a buffer, and 1 μg of total RNA were incubated for 30 minutes at 37° C. Then, 1 μL of 50 mM EDTA was added for enzyme inactivation and incubated at 65° C. for 10 minutes. Subsequently, 5 μL of DNase-treated RNA was added to the mix of 0.5 μL of the reverse-transcriptase enzyme, 2 μL of the reverse-transcriptase buffer, and 1 μL of a random hexamer and incubated for 15 minutes at 37° C., followed by 5 seconds at 85° C. for enzyme inactivation. Stem-loop RT-qPCR method was applied for evaluating the expression of miRNAs (Kramer, 2011). […]
All the reactions were repeated in duplicates. Next, melt curves were analyzed, with the mean threshold cycles used for further analyses. The relative expressions of the miRNAs and PCSK7 to RNU48 small nuclear RNA and/or GAPDH and β2m were calculated, respectively, via the 2-ΔΔCt method. […]

human PCSK9 = test: Western blot of PCSK9 protein in Huh7 cells co-transfected with miRNA vectors; format: cell-based; settings: Huh7, selectivity control
Method: Western blot analysis was conducted to determine whether miR-125a-5p affected the functional activity of […] PC7 in Huh7 cells. A wild-type human PC7-overexpressing vector was co-transfected with pre-miR-125a-5p and pre-miR-224-5p-overexpressing plasmids in Huh7 cells. […] As control, a human PCSK9-overexpressing vector was co-transfected with miR-125a-5p and miR-224-5p vectors in Huh7 cells, whereby these miRNAs had no effect on the expression level of PCSK9 protein (not shown).

PC7 = PC7 shedding of hTfR1 into the media, Huh7 cells; format: cell-based, human; settings: Huh7, 2×, 3× and 5× miR-125a-5p vector
Method: FIGS. 32A-B Western blot (FIG. 32A) and quantitative (FIG. 32B) analysis of human PC7 and TFR1 expression in Huh7 cells, in which miR-125-5p was overexpressed. […] X stands for vector DNA fold for miR-125-5p compared to vector expressing PC7. Because both PC7-V5 and hTfR1-V5 were V5-tagged, the WB using a mAb-V5 reflects the expression of both proteins.
In the next step, the effect of miR-125a-5p on PC7 function was determined. First, the miR-125a-5p-overexpressing vector and its related mock plasmids were co-transfected with the pIRES vector (Invitrogen, USA), containing the full length of cDNA encoding the PCSK7 mRNA with the complete 3′-UTR in Huh7 cells. […] Thereafter, the impact of miR-125a-5p on the enzymatic function of PC7 was assessed by co-transfecting Huh7 cells with the miR-125a-5p-overexpressing vector, with that coding for the full length of PCSK7, and a plasmid encoding hTfR1 (Guillemot et al., 2013; Durand et al., 2020). […]
Subsequently, proteins were isolated with an ice-cold RIPA buffer (1×), comprising 50 mM of Tris hydrochloride (pH 8), 150 mM of sodium chloride, 0.1% sodium dodecyl sulfate, 1% Nonidet P40, 0.25% sodium deoxycholate, and a cocktail of protease inhibitors (Roche, Oakville, ON, Canada). […] Subsequently, immunoreactive bands (the signal) were visualized with an enhanced chemiluminescent reaction kit (Bio-Rad, USA) and recorded via chemiluminescence. […]

In the case of “miR-125a-5p: miRNA targeting PCSK7 3′-UTR and exons 14 and 15, overexpressed from pEGFP-C1 precursor vector (UCCCUGAGACCCUUUAACCUGUGA; miRNA expressed from a pEGFP-C1 precursor vector, further chemistry not given here)”, the “effect on expression of PCSK7 mRNA” value (PCSK7 mRNA) is reported as “did not reach statistical significance”, the “expression level of PCSK9 protein” value (human PCSK9) is reported as “no effect” and the “ability of PC7 to shed hTfR1 into the media” value (PC7) is reported as “led to a decline”.

Source: US20250129370A1, “METHOD FOR REDUCING HEPATIC TRIGLYCERIDES” (ADAERATA, LIMITED PARTNERSHIP, priority 2022, published 2025)
